Source: US12544395B2, “Combination compositions comprising a beta-lactamase inhibitor and uses thereof” (priority 2018, dated 2026)

How the values were obtained:
Format in all cases: cell-based
E. coli BAS 1 = assay: Broth microdilution MIC (strain enzymes: none detected)
K. pneumoniae BAA 1705 = assay: Broth microdilution MIC (strain KPC-producing)
K. pneumoniae 115468 = assay: Broth microdilution MIC (strain enzymes: TEM-1)
E. coli 2150 = assay: Broth microdilution MIC (strain enzymes: SHV-3, TEM-1)
E. coli SI-AIRT-4 = assay: Broth microdilution MIC (strain enzymes: TEM-1)
K. pneumoniae ESBL 8 #1 = assay: Broth microdilution MIC (strain enzymes: TEM-1, SHV-12)
K. pneumoniae 304487 = assay: Broth microdilution MIC (strain enzymes: SHV-12,TEM-1)
E. coli 3327 = assay: Broth microdilution MIC (strain enzymes: TEM-1, SHV-12)
K. pneumoniae 319478 = assay: Broth microdilution MIC (strain enzymes: SHV-12, CTX-M3 and TEM-1)
K. pneumoniae KPN 508 = assay: Broth microdilution MIC (strain enzymes: SHV-7, TEM-1)

CCC(=O)N[C@H]1Cc2cccc(C(=O)O)c2OB1O [Compound 2, (R)-2-hydroxy-3-propionamido-3,4-dihydro-2H-benzo[e][1,2]oxaborinine-8-carboxylic acid]
MIC of cefalexin (LEX) (E. coli BAS 1; with inhibitor at 1 μg/mL): 1 mg/L | MIC of cefdinir (CDR) (E. coli BAS 1; with inhibitor at 1 μg/mL): 1 mg/L | MIC of cefixime (CFM) (E. coli BAS 1; with inhibitor at 1 μg/mL): 8 mg/L | MIC of ceftibuten (CTB) (E. coli BAS 1; with inhibitor at 1 μg/mL): 1 mg/L | MIC of cefalexin (LEX) (E. coli BAS 1; with inhibitor at 2 μg/mL): 1 mg/L | MIC of cefdinir (CDR) (E. coli BAS 1; with inhibitor at 2 μg/mL): 1 mg/L | MIC of cefixime (CFM) (E. coli BAS 1; with inhibitor at 2 μg/mL): 2 mg/L | MIC of ceftibuten (CTB) (E. coli BAS 1; with inhibitor at 2 μg/mL): 1 mg/L | MIC of cefalexin (LEX) (E. coli BAS 1; with inhibitor at 4 μg/mL): 2 mg/L | MIC of cefdinir (CDR) (E. coli BAS 1; with inhibitor at 4 μg/mL): 2 mg/L | MIC of cefixime (CFM) (E. coli BAS 1; with inhibitor at 4 μg/mL): 1 mg/L | MIC of ceftibuten (CTB) (E. coli BAS 1; with inhibitor at 4 μg/mL): 0.5 mg/L | MIC of cefalexin (LEX) (K. pneumoniae BAA 1705; with inhibitor at 1 μg/mL): 4 mg/L | MIC of cefdinir (CDR) (K. pneumoniae BAA 1705; with inhibitor at 1 μg/mL): 4 mg/L | MIC of cefixime (CFM) (K. pneumoniae BAA 1705; with inhibitor at 1 μg/mL): 0.5 mg/L | MIC of ceftibuten (CTB) (K. pneumoniae BAA 1705; with inhibitor at 1 μg/mL): 0.5 mg/L | MIC of cefalexin (LEX) (K. pneumoniae BAA 1705; with inhibitor at 2 μg/mL): 2 mg/L | MIC of cefdinir (CDR) (K. pneumoniae BAA 1705; with inhibitor at 2 μg/mL): 2 mg/L | MIC of cefixime (CFM) (K. pneumoniae BAA 1705; with inhibitor at 2 μg/mL): 0.5 mg/L | MIC of ceftibuten (CTB) (K. pneumoniae BAA 1705; with inhibitor at 2 μg/mL): 0.5 mg/L | MIC of cefalexin (LEX) (K. pneumoniae BAA 1705; with inhibitor at 4 μg/mL): 1 mg/L | MIC of cefdinir (CDR) (K. pneumoniae BAA 1705; with inhibitor at 4 μg/mL): 1 mg/L | MIC of cefixime (CFM) (K. pneumoniae BAA 1705; with inhibitor at 4 μg/mL): 0.25 mg/L | MIC of ceftibuten (CTB) (K. pneumoniae BAA 1705; with inhibitor at 4 μg/mL): 0.25 mg/L | MIC of cefalexin (LEX) (K. pneumoniae 115468; with inhibitor at 1 μg/mL): 0.5 mg/L | MIC of cefdinir (CDR) (K. pneumoniae 115468; with inhibitor at 1 μg/mL): 0.5 mg/L | MIC of cefixime (CFM) (K. pneumoniae 115468; with inhibitor at 1 μg/mL): 2 mg/L | MIC of ceftibuten (CTB) (K. pneumoniae 115468; with inhibitor at 1 μg/mL): 0.06 mg/L | MIC of cefalexin (LEX) (K. pneumoniae 115468; with inhibitor at 2 μg/mL): 0.25 mg/L | MIC of cefdinir (CDR) (K. pneumoniae 115468; with inhibitor at 2 μg/mL): 0.25 mg/L | MIC of cefixime (CFM) (K. pneumoniae 115468; with inhibitor at 2 μg/mL): 0.5 mg/L | MIC of ceftibuten (CTB) (K. pneumoniae 115468; with inhibitor at 2 μg/mL): 0.06 mg/L | MIC of cefalexin (LEX) (K. pneumoniae 115468; with inhibitor at 4 μg/mL): 0.125 mg/L | MIC of cefdinir (CDR) (K. pneumoniae 115468; with inhibitor at 4 μg/mL): 0.125 mg/L | MIC of cefixime (CFM) (K. pneumoniae 115468; with inhibitor at 4 μg/mL): 0.5 mg/L | MIC of ceftibuten (CTB) (K. pneumoniae 115468; with inhibitor at 4 μg/mL): 0.06 mg/L | MIC of cefalexin (LEX) (E. coli 2150; with inhibitor at 1 μg/mL): 1 mg/L | MIC of cefdinir (CDR) (E. coli 2150; with inhibitor at 1 μg/mL): 1 mg/L | MIC of cefixime (CFM) (E. coli 2150; with inhibitor at 1 μg/mL): 0.5 mg/L | MIC of ceftibuten (CTB) (E. coli 2150; with inhibitor at 1 μg/mL): 0.125 mg/L | MIC of cefalexin (LEX) (E. coli 2150; with inhibitor at 2 μg/mL): 0.5 mg/L | MIC of cefdinir (CDR) (E. coli 2150; with inhibitor at 2 μg/mL): 0.5 mg/L | MIC of cefixime (CFM) (E. coli 2150; with inhibitor at 2 μg/mL): 0.5 mg/L | MIC of ceftibuten (CTB) (E. coli 2150; with inhibitor at 2 μg/mL): 0.125 mg/L | MIC of cefalexin (LEX) (E. coli 2150; with inhibitor at 4 μg/mL): 0.5 mg/L | MIC of cefdinir (CDR) (E. coli 2150; with inhibitor at 4 μg/mL): 0.5 mg/L | MIC of cefixime (CFM) (E. coli 2150; with inhibitor at 4 μg/mL): 0.25 mg/L | MIC of ceftibuten (CTB) (E. coli 2150; with inhibitor at 4 μg/mL): 0.06 mg/L | MIC of cefalexin (LEX) (E. coli SI-AIRT-4; with inhibitor at 1 μg/mL): 0.25 mg/L | MIC of cefdinir (CDR) (E. coli SI-AIRT-4; with inhibitor at 1 μg/mL): 0.25 mg/L | MIC of cefixime (CFM) (E. coli SI-AIRT-4; with inhibitor at 1 μg/mL): 0.125 mg/L | MIC of ceftibuten (CTB) (E. coli SI-AIRT-4; with inhibitor at 1 μg/mL): 0.06 mg/L | MIC of cefalexin (LEX) (E. coli SI-AIRT-4; with inhibitor at 2 μg/mL): 0.25 mg/L | MIC of cefdinir (CDR) (E. coli SI-AIRT-4; with inhibitor at 2 μg/mL): 0.25 mg/L | MIC of cefixime (CFM) (E. coli SI-AIRT-4; with inhibitor at 2 μg/mL): 0.125 mg/L | MIC of ceftibuten (CTB) (E. coli SI-AIRT-4; with inhibitor at 2 μg/mL): 0.06 mg/L | MIC of cefalexin (LEX) (E. coli SI-AIRT-4; with inhibitor at 4 μg/mL): 0.25 mg/L | MIC of cefdinir (CDR) (E. coli SI-AIRT-4; with inhibitor at 4 μg/mL): 0.25 mg/L | MIC of cefixime (CFM) (E. coli SI-AIRT-4; with inhibitor at 4 μg/mL): 0.06 mg/L | MIC of ceftibuten (CTB) (E. coli SI-AIRT-4; with inhibitor at 4 μg/mL): 0.06 mg/L | MIC of cefalexin (LEX) (K. pneumoniae ESBL 8 #1; with inhibitor at 1 μg/mL): 0.25 mg/L | MIC of cefdinir (CDR) (K. pneumoniae ESBL 8 #1; with inhibitor at 1 μg/mL): 0.25 mg/L | MIC of cefixime (CFM) (K. pneumoniae ESBL 8 #1; with inhibitor at 1 μg/mL): 2 mg/L | MIC of ceftibuten (CTB) (K. pneumoniae ESBL 8 #1; with inhibitor at 1 μg/mL): 0.25 mg/L | MIC of cefalexin (LEX) (K. pneumoniae ESBL 8 #1; with inhibitor at 2 μg/mL): 0.125 mg/L | MIC of cefdinir (CDR) (K. pneumoniae ESBL 8 #1; with inhibitor at 2 μg/mL): 0.125 mg/L | MIC of cefixime (CFM) (K. pneumoniae ESBL 8 #1; with inhibitor at 2 μg/mL): 0.5 mg/L | MIC of ceftibuten (CTB) (K. pneumoniae ESBL 8 #1; with inhibitor at 2 μg/mL): 0.125 mg/L | MIC of cefalexin (LEX) (K. pneumoniae ESBL 8 #1; with inhibitor at 4 μg/mL): 0.25 mg/L | MIC of cefdinir (CDR) (K. pneumoniae ESBL 8 #1; with inhibitor at 4 μg/mL): 0.25 mg/L | MIC of cefixime (CFM) (K. pneumoniae ESBL 8 #1; with inhibitor at 4 μg/mL): 0.25 mg/L | MIC of ceftibuten (CTB) (K. pneumoniae ESBL 8 #1; with inhibitor at 4 μg/mL): 0.06 mg/L | MIC of cefalexin (LEX) (K. pneumoniae 304487; with inhibitor at 1 μg/mL): 1 mg/L | MIC of cefdinir (CDR) (K. pneumoniae 304487; with inhibitor at 1 μg/mL): 1 mg/L | MIC of cefixime (CFM) (K. pneumoniae 304487; with inhibitor at 1 μg/mL): 1 mg/L | MIC of ceftibuten (CTB) (K. pneumoniae 304487; with inhibitor at 1 μg/mL): 0.25 mg/L | MIC of cefalexin (LEX) (K. pneumoniae 304487; with inhibitor at 2 μg/mL): 1 mg/L | MIC of cefdinir (CDR) (K. pneumoniae 304487; with inhibitor at 2 μg/mL): 1 mg/L | MIC of cefixime (CFM) (K. pneumoniae 304487; with inhibitor at 2 μg/mL): 1 mg/L | MIC of ceftibuten (CTB) (K. pneumoniae 304487; with inhibitor at 2 μg/mL): 0.25 mg/L | MIC of cefalexin (LEX) (K. pneumoniae 304487; with inhibitor at 4 μg/mL): 2 mg/L | MIC of cefdinir (CDR) (K. pneumoniae 304487; with inhibitor at 4 μg/mL): 2 mg/L | MIC of cefixime (CFM) (K. pneumoniae 304487; with inhibitor at 4 μg/mL): 0.5 mg/L | MIC of ceftibuten (CTB) (K. pneumoniae 304487; with inhibitor at 4 μg/mL): 0.25 mg/L | MIC of cefalexin (LEX) (E. coli 3327; with inhibitor at 1 μg/mL): 0.5 mg/L | MIC of cefdinir (CDR) (E. coli 3327; with inhibitor at 1 μg/mL): 0.5 mg/L | MIC of cefixime (CFM) (E. coli 3327; with inhibitor at 1 μg/mL): 1 mg/L | MIC of ceftibuten (CTB) (E. coli 3327; with inhibitor at 1 μg/mL): 0.25 mg/L | MIC of cefalexin (LEX) (E. coli 3327; with inhibitor at 2 μg/mL): 0.5 mg/L | MIC of cefdinir (CDR) (E. coli 3327; with inhibitor at 2 μg/mL): 0.5 mg/L | MIC of cefixime (CFM) (E. coli 3327; with inhibitor at 2 μg/mL): 0.5 mg/L | MIC of ceftibuten (CTB) (E. coli 3327; with inhibitor at 2 μg/mL): 0.25 mg/L | MIC of cefalexin (LEX) (E. coli 3327; with inhibitor at 4 μg/mL): 0.5 mg/L | MIC of cefdinir (CDR) (E. coli 3327; with inhibitor at 4 μg/mL): 0.5 mg/L | MIC of cefixime (CFM) (E. coli 3327; with inhibitor at 4 μg/mL): 0.5 mg/L | MIC of ceftibuten (CTB) (E. coli 3327; with inhibitor at 4 μg/mL): 0.25 mg/L | MIC of cefalexin (LEX) (K. pneumoniae 319478; with inhibitor at 1 μg/mL): 4 mg/L | MIC of cefdinir (CDR) (K. pneumoniae 319478; with inhibitor at 1 μg/mL): 4 mg/L | MIC of cefixime (CFM) (K. pneumoniae 319478; with inhibitor at 1 μg/mL): 2 mg/L | MIC of ceftibuten (CTB) (K. pneumoniae 319478; with inhibitor at 1 μg/mL): 0.125 mg/L | MIC of cefalexin (LEX) (K. pneumoniae 319478; with inhibitor at 2 μg/mL): 2 mg/L | MIC of cefdinir (CDR) (K. pneumoniae 319478; with inhibitor at 2 μg/mL): 2 mg/L | MIC of cefixime (CFM) (K. pneumoniae 319478; with inhibitor at 2 μg/mL): 2 mg/L | MIC of ceftibuten (CTB) (K. pneumoniae 319478; with inhibitor at 2 μg/mL): 0.25 mg/L | MIC of cefalexin (LEX) (K. pneumoniae 319478; with inhibitor at 4 μg/mL): 2 mg/L | MIC of cefdinir (CDR) (K. pneumoniae 319478; with inhibitor at 4 μg/mL): 2 mg/L | MIC of cefixime (CFM) (K. pneumoniae 319478; with inhibitor at 4 μg/mL): 1 mg/L | MIC of ceftibuten (CTB) (K. pneumoniae 319478; with inhibitor at 4 μg/mL): 0.125 mg/L | MIC of cefalexin (LEX) (K. pneumoniae KPN 508; with inhibitor at 1 μg/mL): 0.5 mg/L | MIC of cefdinir (CDR) (K. pneumoniae KPN 508; with inhibitor at 1 μg/mL): 0.5 mg/L | MIC of cefixime (CFM) (K. pneumoniae KPN 508; with inhibitor at 1 μg/mL): 4 mg/L | MIC of ceftibuten (CTB) (K. pneumoniae KPN 508; with inhibitor at 1 μg/mL): 0.125 mg/L | MIC of cefalexin (LEX) (K. pneumoniae KPN 508; with inhibitor at 2 μg/mL): 0.25 mg/L | MIC of cefdinir (CDR) (K. pneumoniae KPN 508; with inhibitor at 2 μg/mL): 0.25 mg/L | MIC of cefixime (CFM) (K. pneumoniae KPN 508; with inhibitor at 2 μg/mL): 1 mg/L | MIC of ceftibuten (CTB) (K. pneumoniae KPN 508; with inhibitor at 2 μg/mL): 0.125 mg/L | MIC of cefalexin (LEX) (K. pneumoniae KPN 508; with inhibitor at 4 μg/mL): 0.5 mg/L | MIC of cefdinir (CDR) (K. pneumoniae KPN 508; with inhibitor at 4 μg/mL): 0.5 mg/L
